US20230103142A1, “SMALL MOLECULE REGULATORS OF NOTCH1 AND USES THEREOF” (THE PENN STATE RESEARCH FOUNDATION, priority 2020, published 2023)
Where two headings read alike, the source gives them in different places.

Experiments:
pCMV/HCT116 cells = assay: colony forming assay
Description: (§3) Six biological replicates used for MTT assays and it was repeated twice for each experiment. […] The anchorage-independent growth assay was performed and repeated in triplicate.

Notch2 in HCT116 cells = assay: immunoblot with Notch2 antibody; conditions: HCT116, IC50 concentration, 12 h and 24 h
Description: Data are presented as the mean±standard deviation (SEM/SD) of three independent experiments. The Student's t-test was used to calculate the statistical significance between the vehicle and treatment at each concentration. *p<0.05 and **p<0.01.

Notch1/HCT116 clone C4 [1] = assay: colony forming assay
Description: as §3

MDA-MB-231 cells = assay: apoptosis assay
ubiquitin in ALDH+ cells = assay: ubiquitin expression; assay type: cell-based
Description: Commercially available positive and negative controls were used for these experiments.

Notch1/HCT116 clone C4 [2] = conditions: read-out: IC50 cell growth; C4 transfectants, 24 h
Description: (§1) Cell culture and supplies: HCT116, SW-620, TCCSUP, UMUC3, HT1376, 5637, T24 and RT4 cells were purchased from ATCC (American Type Culture Collection; Manassas, Va., USA). HCT116, T24, RT4 were maintained in McCoy's medium, TCCSUP, UMUC3, HT1376 in EMEM, SW620 in DMEM and 5637 in RPMI medium, respectively, and supplemented with 10% FBS and penicillin (100 units/mL) and streptomycin (100 units/mL; Millipore Sigma, St Louis, […]., USA) in the presence of 5% CO2 at 37° C. pCMV6-NOTCH1, vector pCMV6-Entry (NOTCH′ (NM_017617) Human ORF Clone; Origene) and NOTCH1 Human siRNA Oligo Duplex were obtained from Origene Technologies Inc. (Rockville, Md., USA). Lipofectamine 2000 reagent was used following the manufacturer's (Cat #11668019; ThermoFisher Scientific) instruction, transfection with overexpression vectors was performed with 500 ng plasmid concentration, while the siRNA was used in 25 nM concentration. Cells were allowed to be transfected for 48 hrs and later harvested or treated for further analysis. Neomycin ([…]) selection media was used to cultivate Notch1-overexpressing HCT116 clones (C1, C2, C3, C4, C5).

Notch1/HCT116 clone C5 [3] = conditions: read-out: IC50 cell growth; C5 transfectants, 24 h
Description: as §1

[4] = tested on: Notch1 silenced HCT116 cells; conditions: vs scrambled transfected HCT116, 24 h
Description: as §1

pCMV/HCT116 xenografts = assay: xenograft tumor growth study; conditions: 5 mg/kg intraperitoneally thrice a week, 4 weeks
Description: Xenograft studies: Six- to eight-week-old BALB/c athymic nude mice (nu/nu) (Jackson Laboratory: Bar Harbor, Me., USA) were subcutaneously injected with pCMV/HCT116 and C4 (1×10^6 cells). The monitoring and measurements were performed.

ALDH+ (BCSC) cells = tested on: ALDH+ (BCSC) cells
Excerpt: (§2) Studies have shown that Notch1 signaling is mainstay of breast cancer stem cell (BCSC) growth.

ALDH− (BC) cells = tested on: ALDH− (BC) cells
Excerpt: as §2

Notch1/HCT116 clone C5 [5] = assay: colony forming assay
Description: as §3

MDA-MB-231 TNBC cells = assay: cell viability assay; assay type: cell-based; conditions: for IC50: read-out: IC50 cell growth
Description: Synergistic effects of combinations were calculated via isobologram analysis.

SW-620 cells = conditions: read-out: IC50 cell viability
Description: as §3

HCT116 cells = conditions: read-out: IC50 cell viability
Description: as §3

[6] = read-out: IC 50 cell growth, 24 h
[7] = read-out: IC 50 cell growth, 48 h

CC1=C(CO)C(=O)O[C@@H]([C@@H](C)[C@H]2CC[C@H]3[C@@H]4C[C@H]5O[C@]56[C@@H](OC(=O)c5ccccn5)C=CC(=O)[C@]6(C)[C@H]4CC[C@]23C)C1 [ASR490, Pyridine-2-carboxylic acid {17-[1-(5-hydroxymethyl-4-methyl-6-oxo-3,6-dihydro-2H-pyran-2-yl)-ethyl]-10,13-dimethyl-1-oxo, 4,6,7,8,9,10,11,12,13,14,15,16,17-tetradecahydro-20-oxacyclopropa[5,6]cyclopenta[a]phenanthren-4-yl}ester]
reduction of colony forming ability (pCMV/HCT116 cells): 22.3%
Notch2 expression (Notch2 in HCT116 cells): no change
reduction of colony forming ability (Notch1/HCT116 clone C4 [1]): 38%
apoptosis (MDA-MB-231 cells; MDA MB-231, 24 h): approximately 20
apoptosis (MDA-MB-231 cells; MDA MB-231, 48 h): ~43
ubiquitin expression (ubiquitin in ALDH+ cells): time dependent increased ubiquitin expression
IC50 (Notch1/HCT116 clone C4 [2]): 0.8 µM
IC50 (Notch1/HCT116 clone C5 [3]): 1.1 µM
growth of Notch1 silenced cells [4]: failed to inhibit the growth
tumor growth (pCMV/HCT116 xenografts): significant tumor growth inhibition
safe dose relative to dose used in efficacy studies (500 mg/kg vs 5 mg/kg): 100 times
safe dose (MTD check) (nu/nu mice): ≤ 500 mg/kg
IC50 (ALDH+ (BCSC) cells; [6]): 0.77 µM
IC50 (ALDH+ (BCSC) cells; [7]): 0.443 µM
IC50 (ALDH− (BC) cells; [6]): 1.6 µM
IC50 (ALDH− (BC) cells; [7]): 0.836 µM
reduction of colony forming ability (Notch1/HCT116 clone C5 [5]): 26.66%
IC50 (MDA-MB-231 TNBC cells; MDA-MB-231, 24 h): 0.76 µM
IC50 (MDA-MB-231 TNBC cells; MDA-MB-231, 48 h): 0.444 µM
inhibition of proliferation by combination (MDA-MB-231 TNBC cells; ⅕th of IC50 of ASR490 (152 nM) in combination with 1/20th of IC50 of DOX (46.4 nM)): 30%
growth inhibition alone (MDA-MB-231 TNBC cells; ⅕th of IC50 of ASR490 alone): did not inhibit the growth
IC50 (SW-620 cells; SW-620, 24-h): 1.2 µM
IC50 (SW-620 cells; SW-620, 48-h): 0.85 µM
IC50 (HCT116 cells; HCT 116, 24-h): 0.75 µM
IC50 (HCT116 cells; HCT 116, 48-h): 0.6 µM
